{"source": "patent US8975398B2", "about": "“NAMPT inhibitors” (AbbVie Inc., priority 2012, dated 2015)", "key": {"[1]": {"molecular_target": "NAMPT (human, recombinant, C-terminally His-tagged) (Homo sapiens, UniProt P43490)", "sequence (P43490 whole entry)": "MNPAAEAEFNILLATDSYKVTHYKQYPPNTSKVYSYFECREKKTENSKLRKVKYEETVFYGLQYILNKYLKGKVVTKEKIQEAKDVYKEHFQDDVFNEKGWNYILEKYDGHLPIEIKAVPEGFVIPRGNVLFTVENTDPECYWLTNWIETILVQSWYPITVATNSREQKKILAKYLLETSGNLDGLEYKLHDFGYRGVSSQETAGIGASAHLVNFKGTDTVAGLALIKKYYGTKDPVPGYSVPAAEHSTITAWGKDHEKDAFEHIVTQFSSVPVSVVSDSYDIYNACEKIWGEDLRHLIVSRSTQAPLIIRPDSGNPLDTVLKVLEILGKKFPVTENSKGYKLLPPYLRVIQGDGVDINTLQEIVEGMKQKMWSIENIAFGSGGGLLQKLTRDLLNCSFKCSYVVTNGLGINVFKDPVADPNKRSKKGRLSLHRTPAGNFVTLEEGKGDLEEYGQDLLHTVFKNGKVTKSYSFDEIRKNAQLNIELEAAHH", "test": "Time-Resolved Fluorescence Resonance Energy Transfer (TR-FRET) Binding Assay of NAMPT", "settings": "6.8 nM NAMPT, 200 nM probe, equilibrated 3 hours, absence of substrates", "in_short": "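Recombinant C-terminally His-tagged human NAMPT (6.8 nM) incubated 3 h at room temperature with 200 nM Oregon Green 488–labelled nicotinamide-competitive probe and 1 nM Tb-anti-His antibody in HEPES pH 7.5, 2% DMSO. TR-FRET ratio Em520/Em495 normalized to controls; IC50 from four-parameter logistic fit.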"}, "NAMPT": {"molecular_target": "NAMPT (Homo sapiens, UniProt P43490)", "sequence (P43490 whole entry)": "as above", "test": "Time-Resolved Fluorescence Resonance Energy Transfer (TR-FRET) Binding Assay of NAMPT with PRPP", "settings": "2 nM NAMPT, 2 nM probe, 200 uM PRPP and 2.5 mM ATP, equilibrated 16 hours", "in_short": "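Final mix: 2 nM NAMPT, 2 nM probe, 1 nM Tb-anti-His antibody, 200 uM PRPP, 2.5 mM ATP, 2% DMSO in 1× assay buffer. Equilibrated 16 hours before TR-FRET read, allowing possible enzymatic modification of compounds.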"}}, "note": "pIC50: −log10 of the molar value.", "data": [{"compound": "Cc1ncccc1N1CC(C(=O)Nc2ccc(C3CCN(C(=O)c4ccc(F)cc4)CC3)cc2)C1", "note": "[Example 155, N-{4-[1-(4-fluorobenzoyl)piperidin-4-yl]phenyl}-1-(2-methylpyridin-3-yl)azetidine-3-carboxamide]", "values": [{"measurement": "pIC50", "setting": "[1]", "result": 6.53}, {"measurement": "pIC50", "setting": "NAMPT", "result": 7.36}]}, {"compound": "Cc1ccc(C(=O)N2CCC(c3ccc(NC(=O)C4CN(c5cccnn5)C4)cc3)CC2)c(C)c1", "note": "[Example 358, N-{4-[1-(2,4-dimethylbenzoyl)piperidin-4-yl]phenyl}-1-(pyridazin-3-yl)azetidine-3-carboxamide]", "values": [{"measurement": "pIC50", "setting": "[1]", "result": 7.80}, {"measurement": "pIC50", "setting": "NAMPT", "result": 9.09}]}, {"compound": "O=C(Nc1ccc(C2CCN(C(=O)CC3CCCC3)CC2)cc1)C1CN(c2ccnnc2)C1", "note": "[Example 144, N-{4-[1-(cyclopentylacetyl)piperidin-4-yl]phenyl}-1-(pyridazin-4-yl)azetidine-3-carboxamide]", "values": [{"measurement": "pIC50", "setting": "[1]", "result": 7.84}, {"measurement": "pIC50", "setting": "NAMPT", "result": 7.46}]}, {"compound": "Cc1ncccc1N1CC(C(=O)Nc2ccc(C3CCN(C(=O)c4ccc(Cl)cc4)CC3)cc2)C1", "note": "[Example 156, N-{4-[1-(4-chlorobenzoyl)piperidin-4-yl]phenyl}-1-(2-methylpyridin-3-yl)azetidine-3-carboxamide]", "values": [{"measurement": "pIC50", "setting": "[1]", "result": 6.40}, {"measurement": "pIC50", "setting": "NAMPT", "result": 7.07}]}, {"compound": "CCOCCC(=O)N1CCC(c2ccc(NC(=O)C3CN(c4cccnc4C)C3)cc2)CC1", "note": "[Example 175, N-{4-[1-(3-ethoxypropanoyl)piperidin-4-yl]phenyl}-1-(2-methylpyridin-3-yl)azetidine-3-carboxamide]", "values": [{"measurement": "pIC50", "setting": "[1]", "result": 6.18}, {"measurement": "pIC50", "setting": "NAMPT", "result": 6.79}]}, {"compound": "O=C(Nc1ccc(OC2CCN(C(=O)c3cccc(Cl)c3)CC2)cc1)C1CN(c2ccnnc2)C1", "note": "[Example 295, N-(4-{[1-(3-chlorobenzoyl)piperidin-4-yl]oxy}phenyl)-1-(pyridazin-4-yl)azetidine-3-carboxamide]", "values": [{"measurement": "pIC50", "setting": "[1]", "result": 7.11}, {"measurement": "pIC50", "setting": "NAMPT", "result": 7.29}]}, {"compound": "CCC(C)(C)CN1CCC(Oc2ccc(NC(=O)C3CN(c4cccnc4)C3)cc2)CC1", "note": "[Example 84, N-(4-{[1-(2,2-dimethylbutyl)piperidin-4-yl]oxy}phenyl)-1-(pyridin-3-yl)azetidine-3-carboxamide]", "values": [{"measurement": "pIC50", "setting": "[1]", "result": 5.22}, {"measurement": "pIC50", "setting": "NAMPT", "result": 8.74}]}, {"compound": "O=C(Nc1ccc(OC2CCN(C(=O)Cc3cc(F)cc(F)c3)CC2)cc1)C1CN(c2ccnnc2)C1", "note": "[Example 291, N-[4-({1-[(3,5-difluorophenyl)acetyl]piperidin-4-yl}oxy)phenyl]-1-(pyridazin-4-yl)azetidine-3-carboxamide]", "values": [{"measurement": "pIC50", "setting": "[1]", "result": 7.34}, {"measurement": "pIC50", "setting": "NAMPT", "result": 7.74}]}, {"compound": "O=C(Nc1ccc(C2CCN(C(=O)c3ccc(Cl)c(Cl)c3)CC2)cc1)C1CN(c2cccnn2)C1", "note": "[Example 364, N-{4-[1-(3,4-dichlorobenzoyl)piperidin-4-yl]phenyl}-1-(pyridazin-3-yl)azetidine-3-carboxamide]", "values": [{"measurement": "pIC50", "setting": "[1]", "result": 7.43}, {"measurement": "pIC50", "setting": "NAMPT", "result": 9.48}]}, {"compound": "CCCCN1CCC(c2ccc(NC(=O)C3CN(c4cccnc4)C3)cc2)CC1", "note": "[Example 91, N-[4-(1-butylpiperidin-4-yl)phenyl]-1-(pyridin-3-yl)azetidine-3-carboxamide]", "values": [{"measurement": "pIC50", "setting": "[1]", "result": 6.00}, {"measurement": "pIC50", "setting": "NAMPT", "result": 9.06}]}, {"compound": "CC(C)CC(=O)N1CCC(Oc2ccc(NC(=O)C3CN(c4cccnc4)C3)cc2)CC1", "note": "[Example 45, N-(4-{[1-(3-methylbutanoyl)piperidin-4-yl]oxy}phenyl)-1-(pyridin-3-yl)azetidine-3-carboxamide]", "values": [{"measurement": "pIC50", "setting": "[1]", "result": 7.06}, {"measurement": "pIC50", "setting": "NAMPT", "result": 8.97}]}, {"compound": "O=C(Nc1ccc(OC2CCN(C(=O)c3ccc(OC(F)(F)F)cc3)CC2)cc1)C1CN(c2ccnnc2)C1", "note": "[Example 290, 1-(pyridazin-4-yl)-N-[4-({1-[4-(trifluoromethoxy)benzoyl]piperidin-4-yl}oxy)phenyl]azetidine-3-carboxamide]", "values": [{"measurement": "pIC50", "setting": "[1]", "result": 7.00}, {"measurement": "pIC50", "setting": "NAMPT", "result": 7.34}]}, {"compound": "O=C(Nc1ccc(OC2CCN(C(=O)c3ccc(C(F)(F)F)cc3)CC2)cc1)C1CN(c2ccnnc2)C1", "note": "[Example 287, 1-(pyridazin-4-yl)-N-[4-({1-[4-(trifluoromethyl)benzoyl]piperidin-4-yl}oxy)phenyl]azetidine-3-carboxamide]", "values": [{"measurement": "pIC50", "setting": "[1]", "result": 6.90}, {"measurement": "pIC50", "setting": "NAMPT", "result": 7.20}]}, {"compound": "O=C(Nc1ccc(OC2CCN(C(=O)c3cccc(OC(F)(F)F)c3)CC2)cc1)C1CN(c2ccnnc2)C1", "note": "[Example 292, 1-(pyridazin-4-yl)-N-[4-({1-[3-(trifluoromethoxy)benzoyl]piperidin-4-yl}oxy)phenyl]azetidine-3-carboxamide]", "values": [{"measurement": "pIC50", "setting": "[1]", "result": 7.00}, {"measurement": "pIC50", "setting": "NAMPT", "result": 7.19}]}, {"compound": "O=C(Nc1ccc(OC2CCN(C(=O)c3ccsc3)CC2)cc1)C1CN(c2cccnc2)C1", "note": "[Example 58, 1-(pyridin-3-yl)-N-(4-{[1-(thiophen-3-ylcarbonyl)piperidin-4-yl]oxy}phenyl)azetidine-3-carboxamide]", "values": [{"measurement": "pIC50", "setting": "[1]", "result": 7.23}, {"measurement": "pIC50", "setting": "NAMPT", "result": 9.17}]}, {"compound": "CC(=O)N1CCC(Oc2ccc(NC(=O)C3CN(c4ccnnc4)C3)cc2)CC1", "note": "[Example 282, N-{4-[(1-acetylpiperidin-4-yl)oxy]phenyl}-1-(pyridazin-4-yl)azetidine-3-carboxamide]", "values": [{"measurement": "pIC50", "setting": "[1]", "result": 6.42}, {"measurement": "pIC50", "setting": "NAMPT", "result": 7.05}]}, {"compound": "O=C(Nc1ccc(OC2CN(C(=O)C3CCCO3)C2)cc1)C1CN(c2ccnnc2)C1", "note": "(stereo not drawn) [Example 262, 1-(pyridazin-4-yl)-N-(4-{[1-(tetrahydrofuran-2-ylcarbonyl)azetidin-3-yl]oxy}phenyl)azetidine-3-carboxamide]", "values": [{"measurement": "pIC50", "setting": "[1]", "result": 6.89}, {"measurement": "pIC50", "setting": "NAMPT", "result": 7.46}]}, {"compound": "Cc1ccc(C(=O)N2CCC(Oc3ccc(NC(=O)C4CN(c5cccnn5)C4)cc3)CC2)s1", "note": "[Example 219, N-[4-({1-[(5-methylthiophen-2-yl)carbonyl]piperidin-4-yl}oxy)phenyl]-1-(pyridazin-3-yl)azetidine-3-carboxamide]", "values": [{"measurement": "pIC50", "setting": "[1]", "result": 6.98}, {"measurement": "pIC50", "setting": "NAMPT", "result": 9.32}]}, {"compound": "CC(C)(C)CN1CCC(Oc2ccc(NC(=O)C3CN(c4cccnc4)C3)cc2)CC1", "note": "[Example 79, N-(4-{[1-(2,2-dimethylpropyl)piperidin-4-yl]oxy}phenyl)-1-(pyridin-3-yl)azetidine-3-carboxamide]", "values": [{"measurement": "pIC50", "setting": "[1]", "result": 5.57}, {"measurement": "pIC50", "setting": "NAMPT", "result": 9.08}]}, {"compound": "CC(=O)N1CCC(c2ccc(NC(=O)C3CN(c4cccnc4)C3)cc2)CC1", "note": "[Example 118, N-[4-(1-acetylpiperidin-4-yl)phenyl]-1-(pyridin-3-yl)azetidine-3-carboxamide]", "values": [{"measurement": "pIC50", "setting": "[1]", "result": 7.85}, {"measurement": "pIC50", "setting": "NAMPT", "result": 9.77}]}, {"compound": "O=C(Nc1ccc(OC2CN(C(=O)CC3CCOCC3)C2)cc1)C1CN(c2ccnnc2)C1", "note": "[Example 256, 1-(pyridazin-4-yl)-N-(4-{[1-(tetrahydro-2H-pyran-4-ylacetyl)azetidin-3-yl]oxy}phenyl)azetidine-3-carboxamide]", "values": [{"measurement": "pIC50", "setting": "[1]", "result": 7.04}, {"measurement": "pIC50", "setting": "NAMPT", "result": 7.42}]}, {"compound": "Cc1ccncc1N1CC(C(=O)Nc2ccc(OC3CCN(C(=O)CC4CCOCC4)CC3)cc2)C1", "note": "[Example 5, 1-(4-methylpyridin-3-yl)-N-(4-{[1-(tetrahydro-2H-pyran-4-ylacetyl)piperidin-4-yl]oxy}phenyl)azetidine-3-carboxamide]", "values": [{"measurement": "pIC50", "setting": "[1]", "result": 6.97}, {"measurement": "pIC50", "setting": "NAMPT", "result": 7.99}]}, {"compound": "CC[C@H](C)C(=O)N1CCC(Oc2ccc(NC(=O)C3CN(c4ccnnc4)C3)cc2)CC1", "note": "[Example 307, N-[4-({1-[(2S)-2-methylbutanoyl]piperidin-4-yl}oxy)phenyl]-1-(pyridazin-4-yl)azetidine-3-carboxamide]", "values": [{"measurement": "pIC50", "setting": "[1]", "result": 7.42}, {"measurement": "pIC50", "setting": "NAMPT", "result": 7.80}]}, {"compound": "CCC(=O)N1CCC(c2ccc(NC(=O)C3CN(c4cccnc4C)C3)cc2)CC1", "note": "[Example 181, 1-(2-methylpyridin-3-yl)-N-[4-(1-propanoylpiperidin-4-yl)phenyl]azetidine-3-carboxamide]", "values": [{"measurement": "pIC50", "setting": "[1]", "result": 6.55}, {"measurement": "pIC50", "setting": "NAMPT", "result": 6.89}]}]}
